This passage reports TGI and GI50 results from PubChem BioAssay (NCI).

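Cultured in 96-well plates, cells were exposed to test compound for 48 hours across five concentrations. At the GI50, growth is halved. TGI: concentration producing complete growth inhibition.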

Test in all cases: DTP human tumour cell line panel, 48 h
The subject of experiment [1] is CAKI-1 renal.
For experiment [2], the system named is HS 578T breast.
The test system of experiment [3] is TK-10 renal.
Experiment [4] has as its system SR leukemia.
Experiment [5] deals with BT-549 breast.
The test system of experiment [6] is SK-OV-3 ovarian.
For experiment [7], the system named is UACC-257 melanoma.
In experiment [8] the test system is MDA-MB-435.
Experiment [9] has as its system RXF 393 renal.
Experiment [10] deals with SK-MEL-2 melanoma.

As to `O=S(=O)(NC1CCCCC1)c1ccc2c(c1)OCCOCCOCCOCCO2`, the TGI in experiment [1], in experiment [2], in experiment [3], in [4], in [5] and in experiment [6] was over 100 µM throughout. The TGI in experiment [7] and in [8] was over 100 µM each time.

In the case of `Cc1ccc(/C=C/c2c(C(=O)/C=C/c3ccccc3)c(C)nc3ccccc23)cc1`, the GI50 was 1.18 µM in experiment [4]; 1.75 µM in experiment [5]; 1.86 µM in experiment [7]; 2.1 µM in experiment [8]; 1.53 µM in [9]. The TGI in experiment [4] was determined as 5.67 µM; in [5] it was 4.36 µM; in experiment [7], 4.02 µM; in experiment [8], 5.59 µM; in experiment [9], 2.88 µM.

With `COc1ccc2c(c1)[n+](=O)c(C(=O)c1cccs1)c(C(F)(F)F)n2[O-]`, the GI50 in [10] was 10.8 µM; in [1], 2.87 µM; in [3], 1.07 µM; in experiment [4] it was 0.775 µM; in experiment [5], 1.3 µM; in experiment [6], 6.41 µM. Further, the GI50 in experiment [7] is 8.66 µM; in experiment [8], 12.2 µM; in experiment [9], over 50 µM. Further, the TGI in [10] was over 50 µM; in experiment [1], 11.7 µM; in experiment [3], 8.77 µM; in experiment [4], over 50 µM; in experiment [5], 6.57 µM; in [6], over 50 µM. Moreover, the TGI in [7] is 42 µM; in experiment [8] it was over 50 µM; in [9], over 50 µM.

For the compound `CC(C)C1CO[C@]2(C)CCC(=O)N12` (stereo partly drawn), the TGI in experiment [10], in [1], in experiment [3], in experiment [4], in experiment [6] and in [7] was over 100 µM in each case. For the same compound, the TGI in experiment [9] was over 100 µM.

For `O=c1cc(-c2ccccn2)[nH]c2cccc(F)c12`, the TGI in experiment [3], in [4], in experiment [6], in [7] and in experiment [9] was over 100 µM each time.

On to `CCOC(=O)NC(=O)c1cn(CCN2CCN(C(=O)CNC(=O)CNC(=O)Cn3cc(C(=O)NC(=O)OCC)c(=O)[nH]c3=O)CC2)c(=O)[nH]c1=O`, for which the TGI in [10], in experiment [1], in experiment [3], in experiment [4], in experiment [6] and in experiment [7] was over 100 µM throughout.

For `COc1cc(-c2nc3ccccc3s2)ccc1OCCCCOc1cc2c(cc1OC)C(=O)N1CCC[C@H]1C=N2`, the GI50 is 1.6 µM in experiment [10]; 0.949 µM in experiment [1]; 1.23 µM in experiment [2]; 2.27 µM in experiment [3]; 0.212 µM in experiment [4]; 2.66 µM in experiment [6]. Besides, the GI50 in [7] was 2.49 µM; in [9], 0.24 µM. Besides, the TGI was 4.23 µM in experiment [10]; 11.6 µM in experiment [1]; 4.47 µM in experiment [2]; 8.81 µM in [3]; 0.785 µM in [4]; 5.44 µM in [6]. For the same compound, the TGI came out at 5.78 µM in [7] and 0.698 µM in experiment [9].

As to `O=C(Oc1cccc(Cl)c1)c1ccccc1Nc1ccnc(C(F)(F)F)c1`, the GI50 is 15.7 µM in experiment [10]; 2.13 µM in experiment [1]; 20.8 µM in [2]; 85 µM in experiment [3]; 0.434 µM in [4]; 6.77 µM in experiment [5]. In experiment [8], the GI50 is 3.04 µM. In addition, the TGI was over 100 µM in [10]; 4.1 µM in experiment [1]; 61 µM in experiment [2]; over 100 µM in experiment [3]; over 100 µM in experiment [4]; 27.6 µM in experiment [5]. The compound also came in with a TGI in experiment [8] of 10.7 µM.

Take `COc1cc2c(cc1OC)-c1ncc3c(OC)ccc(OC)c3c1C2`: the GI50 in experiment [10] was 27.3 µM; in [1], 14.4 µM; in experiment [2] it was 8.05 µM; in experiment [3] it was 16.8 µM; in [5], 11.1 µM; in experiment [6], 37.3 µM. Further, the GI50 in [7] was 19.7 µM; in [8], 23.4 µM; in experiment [9], 16.4 µM. Further, the TGI is 79 µM in experiment [10]; over 100 µM in experiment [1]; 42.4 µM in experiment [2]; 43.6 µM in experiment [3]; 32.5 µM in [5]; 98.7 µM in experiment [6]. In addition, the figures for the TGI in experiment [7], in experiment [8] and in [9] were 55.4 µM, 99.6 µM and 48.9 µM, respectively.

With `C=CCn1c(=S)sc2c(C(=O)OCC)c3c(C)cc(C)cn3c2c1=O`, the TGI in experiment [10], in experiment [1], in [3], in experiment [4], in experiment [6] and in experiment [7] was over 100 µM throughout. This compound also yielded a TGI in [9] of over 100 µM.

Take `C[N+]1=c2c3cccc4cccc(c(=O)n2CC1)c43`: the TGI in experiment [10] was 34.8 µM; in experiment [1], over 100 µM; in experiment [3], 38.8 µM; in experiment [4], 9.59 µM; in experiment [6], 93.8 µM; in experiment [7], 30 µM. Moreover, the TGI in experiment [9] amounted to 25.5 µM.

As for `CCCn1c2c(c3c(O)cccc31)C(=O)c1ccccc1-2`, the GI50 in [10] was 87 µM; in experiment [1], 20.2 µM; in experiment [2], 33.1 µM; in [3] it was 16.4 µM; in [4] it was 0.0354 µM; in experiment [6], 23.7 µM. Moreover, the GI50 was 22.9 µM in experiment [7] and over 100 µM in [8]. Also, the total growth inhibition concentration (TGI) in [10] was over 100 µM; in [1] it was 61.9 µM; in [2] it was over 100 µM; in experiment [3] it was over 100 µM; in [4], 23.8 µM; in experiment [6] it was over 100 µM. Further, the TGI in experiment [7] was 96.5 µM; in [8] it was over 100 µM.

For `C#CC1(O)CCC2C3CCc4cc(Oc5nc(F)nc(-c6c7ccccc7c7n6CCS7)n5)ccc4C3CC[C@@]21C` (stereo partly drawn), the TGI in experiment [10] is 23.9 µM; in [1], 73 µM; in experiment [3], 71.3 µM; in experiment [4], 92.3 µM; in experiment [7] it was over 100 µM.

Turning to `C/C(=C\c1ccn(-c2ccccc2N)n1)[C@@H]1C[C@@H]2O[C@]2(C)CCC[C@H](C)[C@H](O)[C@@H](C)C(=O)C(C)(C)[C@@H](O)CC(=O)O1`, the GI50 in [10] was 0.0819 µM; in experiment [1], 0.242 µM; in experiment [2], 0.0658 µM; in [3], 0.143 µM; in experiment [4] it was 0.0267 µM; in experiment [5] it was 0.116 µM. For the same compound, the GI50 in [6] is 0.081 µM; in experiment [9], 0.0526 µM. Further, the TGI is over 50 µM in [10]; over 50 µM in experiment [1]; 10 µM in [2]; over 50 µM in experiment [3]; over 50 µM in experiment [4]; over 13.1 µM in [5]. The TGI in experiment [6] is over 50 µM; in [7] it was over 50 µM; in [9], 0.604 µM.

Take `CC(C)/C=C1\CCC(CN2CCOCC2)C1=O` (stereo not drawn): the TGI in experiment [10] is 35.6 µM; in experiment [1] it was 8.93 µM; in experiment [3], 29.7 µM; in experiment [4], 13.1 µM; in experiment [6] it was over 100 µM; in experiment [7], 20.1 µM. The TGI in [9] turned out to be 14.1 µM.

On to `Oc1c(C(Nc2ccccc2Br)c2ccccc2)ccc2cccnc12` (stereo not drawn), for which the GI50 in [1] is 1.36 µM; in [2], 10.7 µM; in experiment [3], 3.34 µM; in [4] it was 0.715 µM; in experiment [6], 3.24 µM; in experiment [7], 1.88 µM. Besides, the GI50 is 4 µM in experiment [8] and 1.97 µM in experiment [9]. The TGI is 54.3 µM in [1]; over 100 µM in experiment [2]; 46.3 µM in experiment [3]; over 100 µM in [4]; 78.5 µM in [6]; 8.48 µM in experiment [7]. The results for the TGI in experiment [8] and in experiment [9] were 70.2 µM and 20.9 µM, respectively.

As for `[N-]=[N+]=NC(c1cn(C2CC(O)C(CO)O2)c(=O)[nH]c1=O)C(Cl)Br` (stereo not drawn), the TGI in [10], in experiment [1], in experiment [3], in experiment [4] and in [9] was over 100 µM each time.

With `C=C1CC(CC)(CCN2C(=O)c3ccccc3C2=O)OC1=O` (stereo not drawn), the TGI in experiment [10] was 29.2 µM; in experiment [1], 7.59 µM; in experiment [3] it was 32.3 µM; in experiment [4], over 100 µM; in [7] it was 27 µM; in experiment [9] it was 29.9 µM.

As for `Cc1cn2c(/C=C3/C(=O)Nc4c3ccc3ccccc43)c(C(F)(F)F)nc2s1`, the GI50 was 1.06 µM in experiment [10]; 1.76 µM in experiment [1]; 3 µM in experiment [2]; 12.6 µM in experiment [3]; 0.238 µM in experiment [4]; 1.18 µM in [5]. In addition, the GI50 in experiment [6] is 1.25 µM; in experiment [7] it was over 100 µM; in experiment [9] it was 2.24 µM. Further, the TGI is over 100 µM in experiment [10]; over 100 µM in [1]; 78.7 µM in experiment [2]; over 100 µM in experiment [3]; 26.4 µM in [4]; over 100 µM in experiment [5]. The TGI in [6] was 69.3 µM; in [7] it was over 100 µM; in [9], 8.35 µM.

Take `NC(=N\N=C/c1ccc(O)cc1)/C(N)=N\N=C/c1ccc(O)cc1`: the GI50 in experiment [10] was over 79 µM; in experiment [1] it was 2.06 µM; in experiment [2] it was over 68.9 µM; in experiment [3], over 100 µM; in [5] it was 77.5 µM; in experiment [6] it was 44.8 µM. Besides, the GI50 in experiment [7] is over 100 µM; in [8], 4.88 µM; in experiment [9], 84.7 µM. For the same compound, the TGI in experiment [10], in [1], in experiment [2], in [3], in experiment [5] and in experiment [6] was over 100 µM each time. Moreover, the TGI in experiment [7], in experiment [8] and in experiment [9] was over 100 µM in each case.

Turning to `CC(C)N(C(=O)c1cccc(C(=O)N(C(C)C)C(C)C)c1)C(C)C`, the TGI in experiment [10], in experiment [1], in experiment [3], in [4], in experiment [6] and in experiment [7] was over 100 µM each time.

Consider `O=[N+]([O-])c1ccc(NN=C2CN3CCN(C2)c2ccccc23)c([N+](=O)[O-])c1`, for which the TGI in [1], in experiment [2], in experiment [3], in [4], in [5] and in experiment [6] was over 100 µM throughout. For the same compound, the TGI in [7] and in experiment [8] was over 100 µM in each case.

Regarding `C=CC(=O)N1C/C(=C\c2ccc(Cl)c(Cl)c2)C(=O)/C(=C/c2ccc(Cl)c(Cl)c2)C1`, the TGI was determined as 1.43 µM in experiment [10]; 1.17 µM in experiment [1]; 2.57 µM in experiment [3]; 0.0648 µM in [4]; 1.61 µM in experiment [6]; 1.57 µM in [7]. For the same compound, the TGI in experiment [9] is 0.299 µM.

As to `c1ccc(-c2nn3c(c2-c2ccnc4cc(OCCN5CCOCC5)ccc24)CCC3)nc1`, the GI50 was over 100 µM in experiment [10]; 45.6 µM in experiment [1]; over 100 µM in [2]; over 100 µM in [3]; over 79.9 µM in [5]; over 100 µM in [6]. The GI50 in experiment [7] was over 100 µM; in [8], 25.8 µM; in experiment [9], over 100 µM. Moreover, the total growth inhibition concentration (TGI) in [10], in experiment [1], in experiment [2], in experiment [3], in experiment [5] and in experiment [6] was over 100 µM each time. For the same compound, the TGI in [7], in [8] and in experiment [9] was over 100 µM in each case.
